Reference: paper PMC4949387 (Brain, 2015)

What was measured:
amyloid-β plaque = details: preliminary clinical data; ref Kung et al., 2012; cited from earlier work
amyloid-β plaques = assay: 18F-florbetapir PET scan in Alzheimer's disease patients; type: in vivo, human
amyloid-β [1] = details: ref Joshi et al., 2012, cited from earlier work
amyloid-β [2] = details: ref Choi et al., 2009; cited from earlier work
[3] = Alzheimer's disease (n = 3), PET 50–65 min post-injection

| Compound | Target-to-background ratio for amyloid-β plaque labelling (amyloid-β plaque) | SUVR Anterior cingulate (amyloid-β plaques; [3]) | SUVR Cortical average (amyloid-β plaques; [3]) | SUVR Frontal cortex (amyloid-β plaques; [3]) | SUVR Occipital cortex (amyloid-β plaques; [3]) | SUVR Parietal cortex (amyloid-β plaques; [3]) | SUVR Posterior cingulate (amyloid-β plaques; [3]) | SUVR Subcortical white matter (amyloid-β plaques; [3]) | SUVR Temporal cortex (amyloid-β plaques; [3]) | 18F-florbetapir scan, visual interpretation (amyloid-β plaques; subject AD01) | 18F-florbetapir scan, visual interpretation (amyloid-β plaques; subject AD02) | 18F-florbetapir scan, visual interpretation (amyloid-β plaques; subject AD03) | Mean cortical-to-cerebellar SUVR (amyloid-β [1]; Alzheimer's disease patients) | Greater SUVR in Alzheimer's disease patients relative to healthy controls (amyloid-β [1]) [%] | Kd (amyloid-β [2]) [nM] |
| --- | --- | --- | --- | --- | --- | --- | --- | --- | --- | --- | --- | --- | --- | --- | --- |
| CN(C)c1ccc(-c2cn3cc([123I])ccc3n2)cc1 [123I-IMPY, ^123 I-2-(4′-dimethylaminophenyl)-6-iodo-imidazo[1,2-a]pyridine] | not as robust as that of PET tracers |  |  |  |  |  |  |  |  |  |  |  |  |  |  |
| CNc1ccc(/C=C/c2ccc(OCCOCCOCCF)nc2)cc1 [18F-florbetapir] |  | 1.28 ± 0.05 | 1.31 ± 0.10 | 1.29 ± 0.13 | 1.12 ± 0.25 | 1.37 ± 0.21 | 1.48 ± 0.11 | 1.62 ± 0.16 | 1.32 ± 0.15 | Positive | Positive | Positive | 1.42 ± 0.24 | 42 | 3.7 |
